According to PMC10714400, “Antimicrobial Peptide–Peptoid Hybrids with and without Membrane Disruption” (ACS Infectious Diseases, 2023):
Read-outs that look alike come from different tables or passages of the source.

Experiments:
[1] = system: human red blood cells (hRBC); test: Minimum hemolytic concentration (MHC); type: cell-based; details: CSV
Source text: We also measured minimal hemolysis concentrations (MHC) on human red blood cells by serial 2-fold dilution as an indication of toxicity against eukaryotic cells (Table 1).

S. maltophilia = system: S. maltophilia
How it was run: (§1)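 MIC read visually after MTT staining: lowest compound concentration preventing visible growth (yellow wells). Inoculum ~5 × 10^5 CFU per well in MH broth; static incubation at 37 °C for ca. 18 h.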

S. epidermis = system: S. epidermis
How it was run: as §1

S. aureus Newman = system: S. aureus Newman
How it was run: as §1

B. cenocepacia = system: B. cenocepacia
How it was run: as §1

P. aeruginosa PA14 = system: P. aeruginosa PA14
How it was run: as §1

[2] = Circular dichroism, α-helical content; type: physicochemical; details: 0.1 mg/mL; for CD %α with 5 mM DPC: 10 mM phosphate buffer pH 7.4, 5 mM DPC; for CD %α with 20% TFE: 10 mM phosphate buffer pH 7.4, 20% TFE
PA14 4.18 (pmrB) = system: PA14 4.18 (pmrB)
How it was run: as §1

P. aeruginosa PAO1 = system: P. aeruginosa PAO1
How it was run: as §1

K. pneumoniae NCTC418 = system: K. pneumoniae NCTC418
How it was run: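 MTT added (20–30 min, room temperature); MIC read by eye as lowest concentration inhibiting visible growth (yellow). Polymyxin B positive control from 16 μg/mL.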

[3] = system: ZEM9A (clinical MDR P. aeruginosa isolate); details: CSV; […] MH at pH 8.5
How it was run: as §1

[4] = diluted MH ([…] MH, pH 8.5) per Table 1 footnote b, 16–20 h at 37 °C
[5] = full MH, pH 7.4, 16–20 h at 37 °C

For “H-KKLLKLLKLLL-NH2 [ln65, reference compound]”, the MHC [1] was 125 µg/mL, the “MIC S. maltophilia, […] MH at pH 8.5” value (S. maltophilia; CSV, […] MH at pH 8.5) was 4 ug/mL and the “MIC S. maltophilia, full MH at pH 7.4” value (S. maltophilia; CSV, full MH at pH 7.4) was 2 ug/mL. For the same substance, the “MIC S. maltophilia” value (S. maltophilia; MH pH 7.4, 16–20 h at 37 °C) was 2 µg/mL, the “MIC S. maltophilia” value (S. maltophilia; Table S3, […] MH at pH 8.5) was 4 µg/mL and the “MIC S. epidermis, […] MH at pH 8.5” value (S. epidermis; CSV, […] MH at pH 8.5) was 1 ug/mL. For the same substance, the “MIC S. epidermis, full MH at pH 7.4” value (S. epidermis; CSV, full MH at pH 7.4) was 2 ug/mL, the “MIC S. epidermis” value (S. epidermis; MH pH 7.4, 16–20 h at 37 °C) was 2 µg/mL and the “MIC S. epidermis” value (S. epidermis; Table S3, […] MH at pH 8.5) was 1 µg/mL. The “MIC S. aureus Newman, […] MH at pH 8.5” value (S. aureus Newman; CSV, […] MH at pH 8.5) was 2 ug/mL, the “MIC S. aureus Newman, full MH at pH 7.4” value (S. aureus Newman; CSV, full MH at pH 7.4) was 2 ug/mL and the “MIC S. aureus Newman” value (S. aureus Newman; MH pH 7.4, 16–20 h at 37 °C) was 2 µg/mL. The “MIC S. aureus Newman” value (S. aureus Newman; Table S3, […] MH at pH 8.5) was 2 µg/mL, the “MIC B. cenocepacia, full MH at pH 7.4” value (B. cenocepacia; CSV, full MH at pH 7.4) was >32 ug/mL and the “MIC B. cenocepacia” value (B. cenocepacia; MH pH 7.4, 16–20 h at 37 °C) was >32 µg/mL. For the same substance, the “MIC P. aeruginosa PA14, […] MH at pH 8.5” value (P. aeruginosa PA14; CSV, […] MH at pH 8.5) was 2 ug/mL, the “MIC P. aeruginosa PA14, full MH at pH 7.4” value (P. aeruginosa PA14; CSV, full MH at pH 7.4) was 3 ug/mL and the “MIC P. aeruginosa PA14” value (P. aeruginosa PA14; MH pH 7.4, 16–20 h at 37 °C) was 2 to 4 µg/mL. The “MIC P. aeruginosa PA14” value (P. aeruginosa PA14; Table S3, […] MH at pH 8.5, 16-20 hours at 37 °C) was 2 µg/mL, the “CD %α with 5 mM DPC” value ([2]; DichroWeb, Contin-LL) was 73% and the “CD %α with 20% TFE” value ([2]; DichroWeb, Contin-LL) was 64%. The “CD %α with 5 mM DPC” value ([2]; Table S2) was 73%, the “CD %α with 20% TFE” value ([2]; Table S2) was 64% and the “MIC P. aeruginosa PA14 4.18, […] MH at pH 8.5” value (PA14 4.18 (pmrB); CSV, […] MH at pH 8.5) was 3 ug/mL. For the same substance, the “MIC P. aeruginosa PA14 4.18, full MH at pH 7.4” value (PA14 4.18 (pmrB); CSV, full MH at pH 7.4) was 32 ug/mL, the “MIC PA14 4.18 (pmrB)” value (PA14 4.18 (pmrB); MH pH 7.4, 16–20 h at 37 °C) was 32 µg/mL and the “MIC P. aeruginosa PA14 4.18” value (PA14 4.18 (pmrB); Table S3, […] MH at pH 8.5) was 2 to 4 µg/mL. For the same substance, the “MIC P. aeruginosa PAO1, […] MH at pH 7.4” value (P. aeruginosa PAO1; CSV, […] MH at pH 7.4) was 4 ug/mL, the “MIC P. aeruginosa PAO1, […] MH at pH 8.5” value (P. aeruginosa PAO1; CSV, […] MH at pH 8.5) was 4 ug/mL and the “MIC P. aeruginosa PAO1, full MH at pH 7.4” value (P. aeruginosa PAO1; CSV, full MH at pH 7.4) was 3 ug/mL. For the same substance, the “MIC P. aeruginosa PAO1, full MH at pH 8.5” value (P. aeruginosa PAO1; CSV, full MH at pH 8.5) was 16 ug/mL, the “MIC P. aeruginosa PAO1 […] 7.4” value (P. aeruginosa PAO1; Table S2, […] MH, pH 7.4) was 4 µg/mL and the “MIC P. aeruginosa PAO1 […] 8.5” value (P. aeruginosa PAO1; Table S2, […] MH, pH 8.5) was 4 µg/mL. For the same substance, the “MIC P. aeruginosa PAO1 Full MH 7.4” value (P. aeruginosa PAO1; Table S2, full MH, pH 7.4) was 2 to 4 µg/mL, the “MIC P. aeruginosa PAO1 Full MH 8.5” value (P. aeruginosa PAO1; Table S2, full MH, pH 8.5) was 16 µg/mL and the “MIC P. aeruginosa PAO1 […]” value (P. aeruginosa PAO1; [4]) was 4 µg/mL. The “MIC P. aeruginosa PAO1 Full” value (P. aeruginosa PAO1; [5]) was 2 to 4 µg/mL, the “MIC K. pneumoniae NCTC418, […] MH at pH 7.4” value (K. pneumoniae NCTC418; CSV, […] MH at pH 7.4) was 3 ug/mL and the “MIC K. pneumoniae NCTC418, […] MH at pH 8.5” value (K. pneumoniae NCTC418; CSV, […] MH at pH 8.5) was 2 ug/mL. For the same substance, the “MIC K. pneumoniae NCTC418, full MH at pH 7.4” value (K. pneumoniae NCTC418; CSV, full MH at pH 7.4) was 4 ug/mL, the “MIC K. pneumoniae NCTC418, full MH at pH 8.5” value (K. pneumoniae NCTC418; CSV, full MH at pH 8.5) was 8 ug/mL and the “MIC K. pneumoniae NCTC418 […] 7.4” value (K. pneumoniae NCTC418; Table S2, […] MH, pH 7.4) was 2 to 4 µg/mL. The “MIC K. pneumoniae NCTC418 […] 8.5” value (K. pneumoniae NCTC418; Table S2, […] MH, pH 8.5) was 2 µg/mL, the “MIC K. pneumoniae NCTC418 Full MH 7.4” value (K. pneumoniae NCTC418; Table S2, full MH, pH 7.4) was 4 µg/mL and the “MIC K. pneumoniae NCTC418 Full MH 8.5” value (K. pneumoniae NCTC418; Table S2, full MH, pH 8.5) was 8 µg/mL. For the same substance, the “MIC K. pneumoniae NCTC418 […]” value (K. pneumoniae NCTC418; [4]) was 2 to 4 µg/mL, the “MIC K. pneumoniae NCTC418 Full” value (K. pneumoniae NCTC418; [5]) was 4 µg/mL and the “MIC P. aeruginosa ZEM9A, […] MH at pH 8.5” value [3] was 4 ug/mL.
